Laboratory results published in article PMC6981581, “N-(2-Arylmethylthio-4-Chloro-5-Methylbenzenesulfonyl)amide Derivatives as Potential Antimicrobial Agents—Synthesis and Biological Studies” (International Journal of Molecular Sciences, 2019).
≈ marks a conversion by molar mass, not a printed value. Where “and” joins values, the source holds several entries; their conditions need not be identical. Identical values can stand only once. Like-named read-outs stand apart in the source and are kept apart here. Each block holds one compound with its values, some of them ahead of it.

Tests used:
Format in all cases: cell-based
[1] = tested on: Enterococcus faecalis ATCC 11420; assay: Broth dilution MIC/MBC, reference strain; settings: for MBC/MIC: E. f. ATCC 11420; for MBC / MIC: Enterococcus faecalis, ATCC11420
Method: (§1) The tests were carried out using a serial dilution method, allowing the determination of MIC (minimal concentration inhibiting bacterial growth), MBC (minimal bactericidal concentration), and MFC (minimal fungicidal concentration) values.
(§2) Antimicrobial activity was tested using the following reference strains: Staphylococcus aureus ATCC 6538 (MSSA), Staphylococcus aureus ATCC 43300 (MRSA), Staphylococcus epidermidis PCM 2118, Escherichia coli ATCC 11229, Pseudomonas aeruginosa ATCC 15442, Proteus vulgaris NCTC 4635, Enterococcus faecalis ATCC 11420, and Candida albicans ATCC 10231.
(§3) A broth dilution method was used to determine minimal inhibitory concentration (MIC) for tested compounds as recommended by Clinical Laboratory Standards Institute (CLSI) guidelines. Investigated compounds were diluted in Mueller Hinton Broth 2 (Sigma-Aldrich Co., St. Louis, MO, USA) in polypropylene 96-well plates and initial inoculum 5 × 10^5 cfu/mL were incubated at 37 °C for 18 h. MIC was taken as the lowest drug concentration at which an observable growth was inhibited. […] The loopful (10 µL) of the tested sample was transferred to Tryptic Soy Agar (TSA, Becton-Dickinson, Franklin Lakes, NJ, USA) and incubated at 37 °C for 48 h. […] Drug Solutions were made fresh on the day of the assay. All experiments were performed in triplicate.

[2] = tested on: Escherichia coli ATCC 11229; assay: Broth dilution MIC/MBC, reference strain; settings: for MBC/MIC: E. c. ATCC 11229; for MBC / MIC: Escherichia coli, ATCC11229
Method: as §1, §2, §3

[3] = tested on: Proteus vulgaris NCTC 4635; assay: Broth dilution MIC/MBC, reference strain; settings: for MBC/MIC: P. v. NCTC 4635; for MBC / MIC: Proteus vulgaris, NCTC4635
Method: as §1, §2, §3

[4] = tested on: Pseudomonas aeruginosa ATCC 15442; assay: Broth dilution MIC/MBC, reference strain; settings: for MBC/MIC: P. a. ATCC 15442; for MBC / MIC: Pseudomonas aeruginosa, ATCC15442
Method: as §1, §2, §3

[5] = tested on: Staphylococcus aureus ATCC 43300 (MRSA); assay: Broth dilution MIC/MBC, reference strain; settings: for MBC/MIC: S. a. ATCC 43300; for MBC / MIC: Staphylococcus aureus
Method: as §1, §2, §3

[6] = tested on: Staphylococcus aureus ATCC 6538 (MSSA); assay: Broth dilution MIC/MBC, reference strain; settings: for MBC/MIC: S. a. ATCC 6538; for MBC / MIC: Staphylococcus aureus
Method: as §1, §2, §3

[7] = tested on: Staphylococcus epidermidis PCM 2118; assay: Broth dilution MIC/MBC, reference strain; settings: for MBC/MIC: S. e. PCM 2118; for MIC / MBC: Staphylococcus epidermidis
Method: as §1, §2, §3

[8] = tested on: Candida albicans ATCC 10231; assay: Broth dilution MIC/MFC, reference fungal strain; settings: for MFC/MIC: C. a. ATCC 10231; for MFC / MIC: Candida albicans, ATCC10231
Method: as §1, §2, §3

[9] = tested on: HaCaT cell line (human keratinocyte); assay: MTT cell viability assay; settings: MTT assay, 72 h incubation, mean ± SD, read-out: IC50 HaCaT
HCT-116 (colon cancer) = assay: MTT cell viability assay; settings: Homo sapiens, 72 h incubation, mean ± SD
Method: (§4) Analysis was performed using the MTT test and 72 h of incubation.
(§5) All chemicals were obtained from Sigma-Aldrich (St. Louis, MO, USA). The MCF-7 and HeLa cell lines were purchased from Cell Lines Services (Eppelheim, Germany), the HCT-116 cell line was purchased from ATCC (ATCC-No: CCL-247). Cells were cultured in Dulbecco’s modified Eagle’s medium (DMEM) supplemented with 10% fetal bovine serum, 2 mM glutamine, 100 units/mL penicillin, and 100 μg/mL streptomycin. Cultures were held in an incubator (Heraceus, HeraCell) in a humidified atmosphere with 5% CO2 at 37 °C.
(§6) Cell viability was evaluated using the MTT (3-(4,5-dimethylthiazol-2-yl)-2,5-diphenyltetrazolium bromide) assay. Stock solutions of the studied compounds were obtained in 100% DMSO. […] Cells at a density of 5 × 10^3 cells/well, seeded in 96-well plates, were treated for 72 h with the tested compounds in the concentration range 1–100 μM (1, 10, 25, 50 and 100 μM). After treatment, cells were incubated for 2 h with MTT (0.5 mg/mL) at 37 °C. Cells were lysed with DMSO and the absorbance of the formazan solution was measured at 550 nm with a plate reader (1420 multilabel counter, Victor, Jügesheim, Germany). Values are expressed as the mean ± SD of at least three independent experiments conducted in triplicate.

HeLa (cervical cancer) = assay: MTT cell viability assay; settings: Homo sapiens, 72 h incubation, mean ± SD
Method: as §4, §5, §6

MCF-7 (breast cancer) = assay: MTT cell viability assay; settings: Homo sapiens, MCF7, 72 h incubation, mean ± SD
Method: as §4, §5, §6

[10] = PCM2118, S. epidermidis PCM 2118

Compound: Cc1cc(S(=O)(=O)NC(=O)C=Cc2ccccc2)c(SCc2ccccc2)cc1Cl [Compound 13, N-{[2-(Benzylthio)-4-chloro-5-methylphenyl]sulfonyl}cinnamamide]
MBC/MIC [1]: >1
MBC [1]: > 128 µg/mL
MIC [1]: > 128 µg/mL
MBC/MIC [2]: >1
MBC [2]: > 128 µg/mL
MIC [2]: 128 µg/mL (≈ 279 µM)
MBC/MIC [3]: >1
MBC [3]: > 128 µg/mL
MIC [3]: 128 µg/mL (≈ 279 µM)
MBC/MIC [4]: >1
MBC [4]: > 128 µg/mL
MIC [4]: 128 µg/mL (≈ 279 µM)
MBC/MIC [5]: >4
MBC [5]: > 128 µg/mL
MIC [5]: 32 µg/mL (≈ 69.9 µM)
MBC/MIC [6]: >4
MBC [6]: > 128 µg/mL
MIC [6]: 32 µg/mL (≈ 69.9 µM)
MBC/MIC [7]: >4
MIC ([7]; PCM2118): 32 µg/mL (≈ 69.9 µM)
MBC [7, 10]: > 128 µg/mL
MFC/MIC [8]: 2
MFC [8]: 128 µg/mL (≈ 279 µM)
MIC [8]: 64 µg/mL (≈ 140 µM)

MBC/MIC [1]: >4
MIC ([1]; E. faecalis ATCC 11420, read-out: MIC): 32 µg/mL (≈ 62 µM)
MBC/MIC [2]: >1
MIC ([2]; E. coli ATCC 11229, read-out: MIC): 128 µg/mL (≈ 248 µM)
MBC/MIC [3]: >1
MIC ([3]; P. vulgaris NCTC 4635, read-out: MIC): 128 µg/mL (≈ 248 µM)
MBC/MIC [4]: 1
MIC ([4]; P. aeruginosa ATCC 15442, read-out: MIC): 128 µg/mL (≈ 248 µM)
MBC/MIC [5]: >16
MIC ([5]; S. aureus ATCC 43300, read-out: MIC): 8 µg/mL (≈ 15.5 µM)
MBC/MIC [6]: 16
MIC ([6]; S. aureus ATCC 6538, read-out: MIC): 8 µg/mL (≈ 15.5 µM)
MBC/MIC [7]: 32
MIC ([7]; PCM2118, S. epidermidis PCM 2118, read-out: MIC): 4 µg/mL (≈ 7.75 µM)
MFC/MIC [8]: 2
MIC ([8]; C. albicans ATCC 10231, read-out: MIC): 64 µg/mL (≈ 124 µM)
IC50 (HCT-116 (colon cancer)): 77 ± 3 µM
IC50 (HeLa (cervical cancer)): 88 ± 3 µM
IC50 (MCF-7 (breast cancer)): 94 ± 3 µM
Compound: Cc1cc(S(=O)(=O)NC(=O)CCC2CCCCC2)c(SCc2ccc3ccccc3c2)cc1Cl [Compound 12, N-[4-Chloro-5-methyl-2-(naphthalen-2-ylmethylthio)benzenesulfonyl]-3-cyclohexylpropanamide]
MBC ([1]; E. faecalis ATCC 11420, read-out: MBC): > 128 µg/mL
MBC ([2]; E. coli ATCC 11229, read-out: MBC): > 128 µg/mL
MBC ([3]; P. vulgaris NCTC 4635, read-out: MBC): > 128 µg/mL
MBC ([4]; P. aeruginosa ATCC 15442, read-out: MBC): 128 µg/mL (≈ 248 µM)
MBC ([5]; S. aureus ATCC 43300, read-out: MBC): > 128 µg/mL
MBC ([6]; S. aureus ATCC 6538, read-out: MBC): 128 µg/mL (≈ 248 µM)
MBC ([7]; PCM2118, S. epidermidis PCM 2118, read-out: MBC): 128 µg/mL (≈ 248 µM)
MFC ([8]; C. albicans ATCC 10231, read-out: MFC): 128 µg/mL (≈ 248 µM)
IC50 [9]: 47 µg/mL and 92 µM

Compound: Cc1cc(S(=O)(=O)NC(=O)CCC2CCCCC2)c(SCc2ccccc2)cc1Cl [Compound 8, N-(2-Benzylthio-4-chloro-5-methylbenzenesulfonyl)-3-cyclohexylpropanamide]
MBC [1]: > 128 µg/mL
MIC [1]: 128 µg/mL (≈ 275 µM)
MBC [2]: > 128 µg/mL
MIC [2]: 128 µg/mL (≈ 275 µM)
MBC [3]: > 128 µg/mL
MIC [3]: 64 µg/mL (≈ 137 µM)
MBC [4]: > 128 µg/mL
MIC [4]: 128 µg/mL (≈ 275 µM)
MBC [5]: > 128 µg/mL
MIC [5]: 16 µg/mL (≈ 34.3 µM)
MBC [6]: > 128 µg/mL
MIC [6]: 32 µg/mL (≈ 68.7 µM)
MIC ([7]; PCM2118): 8 µg/mL (≈ 17.2 µM)
MBC [7, 10]: 32 µg/mL (≈ 68.7 µM)
MFC [8]: 128 µg/mL (≈ 275 µM)
MIC [8]: 64 µg/mL (≈ 137 µM)
